How the values were obtained:
human TRPV1 channel [1] = molecular target: T1, human TRPV1 channel (Homo sapiens, UniProt Q8NER1); test: Calcium imaging (Fura Red-AM), HEK293 cells transfected with hTRPV1-GFP; assay type: cell-based; conditions: 1 µM Cap; hTRPV1-GFP HEK293; pH 7.4, room temperature; n: 58; vs DMSO **** p < 0.0001
T1 construct: host or cells: HEK293
Protocol: (§1) Dr. Alejandro Maureira, Universidad Católica del Maule, Chile, generously provided HEK293 cells. The cells were cultured in T75 flasks (Corning Inc., Corning, NY, USA) in a humidified atmosphere at 37 °C with 5% CO2 in Dulbecco’s Modified Eagle Medium (DMEM) with high glucose (Cytiva, Marlborough, MA, USA), supplemented with 10% fetal bovine serum (Cytiva, Marlborough, MA, USA) and a mixture of 100 IU/mL penicillin and 100 µg/mL streptomycin (Corning Inc., Corning, NY, USA) in a CO2CELL incubator (MMM Group, Munich, Germany). This procedure was used to maintain the cells for all of the experiments.
(§2) HEK293 cells were transfected with the human TRPV1 channel coupled to GFP in its C-terminus (TRPV1-GFP, catalog #: RG217653, Origene, Rockville, MD, USA). […] Transfections were conducted using Lipofectamine 3000 (Invitrogen, Waltham, MA, USA), according to the manufacturer’s instructions. Experimental protocols were performed 24 h post-transfection.
(§3) The data were analyzed and plotted using GraphPad software v10.0.2. We used the Shapiro–Wilk test to determine the data distribution. […] Statistically significant values were considered when p values were * p < 0.05, ** p < 0.01, *** p < 0.001, and **** p < 0.0001.

[2] = tested on: HEK293-untransfected cells; test: Calcium imaging (Fura Red-AM), untransfected HEK293 cells; assay type: cell-based; conditions: 1 µM Cap, confocal, pH 7.4, room temperature, n: 26
Protocol: Dr. Alejandro Maureira, Universidad Católica del Maule, Chile, generously provided HEK293 cells. The cells were cultured in T75 flasks (Corning Inc., Corning, NY, USA) in a humidified atmosphere at 37 °C with 5% CO2 in Dulbecco's Modified Eagle Medium (DMEM) with high glucose (Cytiva, Marlborough, MA, USA), supplemented with 10% fetal bovine serum (Cytiva, Marlborough, MA, USA) and a mixture of 100 IU/mL penicillin and 100 μg/mL streptomycin (Corning Inc., Corning, NY, USA) in a CO2CELL incubator (MMM Group, Munich, Germany). This procedure was used to maintain the cells for all of the experiments. […] Then, the cells were washed and cultured during the experiment with the extracellular solution containing (in mM) 140 NaCl, 5 KCl, 2 CaCl2, 1 MgCl2, 10 HEPES, and 6 glucose, with pH adjusted to 7.4 with NaOH [13]. Calcium images were obtained every 3 s for 30 min using Leica Stellaris 5 spectral confocal microscopy. […] Fura Red emissions in bound and unbound states were acquired around their peaks at 610 nm and 670 nm, respectively. The bound and unbound fluorescence of Fura Red-AM was acquired using Leica LAS X v.4.3.0.24308 software. The Fura Red-Am bound and unbound ratio was calculated (405 nm/488 nm) and plotted. […] The data were analyzed and plotted using GraphPad software v10.0.2. […]

human TRPV1 channel [3] = molecular target: T1, human TRPV1 channel; test: Whole-cell voltage-clamp recording of TRPV1 currents, HEK293 cells with human TRPV1-GFP; assay type: cell-based; conditions: 1 µM Cap; voltage ramp -80 to 80 mV, +80 mV; n: 7; **** p < 0.0001; room temperature
Protocol: as §1, §2
Untransfected and transfected HEK293 cells with the human TRPV1-GFP were recorded using a whole-cell voltage clamp. Cells were cultured in 15 mm round coverslips pretreated with 0.1 mg/mL poly-L-lysine (Gibco, Billings, MT, USA) and transfected with TRPV1-GFP plasmid. TRPV1-GFP-positive cells were identified using a 405 nm LED light in a Nikon Eclipse Ts2 inverted microscope. Borosilicate pipettes (nº 1B150F-4, World Precision Instruments, Sarasota, FL, USA) of 2.8’5 MΩ were used. Pipettes were pulled with a P-97 Micropipette Puller (Sutter Instruments, Novato, CA, USA). The extracellular solution contained (in mM) 140 NaCl, 5 KCl, 2 CaCl2, 1 MgCl2, 10 HEPES, and 6 glucose at pH 7.4. The internal solution contained (in mM) 140 CsCl, 4 MgCl2, 10 EGTA, and 10 HEPES-CsOH at pH 7.3. All the experiments were recorded using a HEKA EPC9 amplifier. The holding potential was −80 mV. A 500 ms voltage ramp from −80 to 80 mV was applied to record TRPV1 currents. The sample frequency was 50 kHz, and the signals were filtered at 2.9 kHz using PatchMaster software. Data were analyzed using Clampfit v.7 software (Molecular Devices, San Jose, CA, USA). The extracellular solution and ligands were administered using a VC-8 perfusion system (~2 mL/s, Warner Instruments, Holliston, MA, USA). We used capsaicin (Cayman Chemicals, nº 92350), SB366791 (nº 11019, Cayman Chemicals, Ann Arbor, MI, USA), and RVD-Hp (Synbio Technologies, Monmouth Junction, NJ, USA). We used dimethyl sulfoxide (DMSO, Sigma-Aldrich, St. Louis, MO, USA) and untransfected cells as controls. Electrophysiological recordings were performed at room temperature.
as §3

[4] = tested on: untransfected HEK293 cells; test: Whole-cell voltage-clamp recording, untransfected HEK293 cells; assay type: cell-based; conditions: 1 µM Cap; voltage ramp -80 to 80 mV; room temperature
Protocol: as §1
Untransfected and transfected HEK293 cells with the human TRPV1-GFP were recorded using a whole-cell voltage clamp. Cells were cultured in 15 mm round coverslips pretreated with 0.1 mg/mL poly-L-lysine (Gibco, Billings, MT, USA) and transfected with TRPV1-GFP plasmid. TRPV1-GFP-positive cells were identified using a 405 nm LED light in a Nikon Eclipse Ts2 inverted microscope. Borosilicate pipettes (nº 1B150F-4, World Precision Instruments, Sarasota, FL, USA) of 2.8’5 MΩ were used. Pipettes were pulled with a P-97 Micropipette Puller (Sutter Instruments, Novato, CA, USA). […] All the experiments were recorded using a HEKA EPC9 amplifier. […] Data were analyzed using Clampfit v.7 software (Molecular Devices, San Jose, CA, USA). […]
The data were analyzed and plotted using GraphPad software v10.0.2. […]

TRPV1 channel = tested on: TRPV1 channel; parameters: method as in 4 sources, ref [12]; anandamide and 2-AG ref [13],[14],[15],[16] ||| ref [88],[89] = [88]; PMID 27281200; doi:10.1038/nature17964; 88. Gao Y. Cao E. Julius D. Cheng Y. TRPV1 structures in nanodiscs reveal mechanisms of ligand and lipid action Nature 2016 534 347 351 10.1038/nature17964 27281200 PMC4911334 || [89]; PMID 37117175; doi:10.1038/s41467-023-38162-9; 89. Neuberger A. Oda M. Nikolaev Y.A. Nadezhdin K.D. Gracheva E.O. Bagriantsev S.N. Sobolevsky A.I. Human TRPV1 structure and inhibition by the analgesic SB-366791 Nat. Commun. 2023 14 2451 10.1038/s4 ||| ref [90] = [90]; PMID 38698206; doi:10.1038/s41594-024-01299-2; 90. Arnold W.R. Mancino A. Moss F.R. Frost A. Julius D. Cheng Y. Structural basis of TRPV1 modulation by endogenous bioactive lipids Nat. Struct. Mol. Biol. 2024 1 9 10.1038/s41594-024-01299-2 3869820 ||| ref [67] = [67]; PMID 29117570; doi:10.1016/j.celrep.2017.10.063; 67. Nersesyan Y. Demirkhanyan L. Cabezas-Bratesco D. Oakes V. Kusuda R. Dawson T. Sun X. Cao C. Cohen A.M. Chelluboina B. Oxytocin Modulates Nociception as an Agonist of Pain-Sensing TRPV1 Cell Rep. 2; conditions: cited from earlier work
From the text: The transient receptor potential (TRP) channels family involves several subfamilies, including the vanilloid (TRPVs) group. TRPV1, a member of the TRPV subfamily, is a non-selective cationic homotetramer channel. It is known to be activated by various stimuli, including temperature, capsaicin (the principal compound in chili peppers), and endocannabinoids such as anandamide (AEA) and 2-arachidonoylglycerol (2-AG). The TRPV1 channel protein is found in the central (CNS) and peripheral nervous system (PNS). In the CNS, TRPV1 is expressed in the prefrontal cort ... || Molecular dynamics (MD) simulations allow studying protein dynamics at an atomic level under physiological conditions, enhancing our understanding of various proteins, including ion channels like TRPV1 [82]. These simulations provide insight into their function, conformational changes, and interactions with different ligands.

[5] = cited from earlier work
From the text: Capsaicin creams and patches have been used in the treatment of muscle pain, neuropathic pain, arthritis, and migraines. […] CNTX-4975 has been developed as a treatment option for pain in individuals with osteoarthritis.

thermal hyperalgesia = conditions: capsazepine administration; ref [12],[32],[33],[34]; cited from earlier work

T1 sequence (Q8NER1 whole entry): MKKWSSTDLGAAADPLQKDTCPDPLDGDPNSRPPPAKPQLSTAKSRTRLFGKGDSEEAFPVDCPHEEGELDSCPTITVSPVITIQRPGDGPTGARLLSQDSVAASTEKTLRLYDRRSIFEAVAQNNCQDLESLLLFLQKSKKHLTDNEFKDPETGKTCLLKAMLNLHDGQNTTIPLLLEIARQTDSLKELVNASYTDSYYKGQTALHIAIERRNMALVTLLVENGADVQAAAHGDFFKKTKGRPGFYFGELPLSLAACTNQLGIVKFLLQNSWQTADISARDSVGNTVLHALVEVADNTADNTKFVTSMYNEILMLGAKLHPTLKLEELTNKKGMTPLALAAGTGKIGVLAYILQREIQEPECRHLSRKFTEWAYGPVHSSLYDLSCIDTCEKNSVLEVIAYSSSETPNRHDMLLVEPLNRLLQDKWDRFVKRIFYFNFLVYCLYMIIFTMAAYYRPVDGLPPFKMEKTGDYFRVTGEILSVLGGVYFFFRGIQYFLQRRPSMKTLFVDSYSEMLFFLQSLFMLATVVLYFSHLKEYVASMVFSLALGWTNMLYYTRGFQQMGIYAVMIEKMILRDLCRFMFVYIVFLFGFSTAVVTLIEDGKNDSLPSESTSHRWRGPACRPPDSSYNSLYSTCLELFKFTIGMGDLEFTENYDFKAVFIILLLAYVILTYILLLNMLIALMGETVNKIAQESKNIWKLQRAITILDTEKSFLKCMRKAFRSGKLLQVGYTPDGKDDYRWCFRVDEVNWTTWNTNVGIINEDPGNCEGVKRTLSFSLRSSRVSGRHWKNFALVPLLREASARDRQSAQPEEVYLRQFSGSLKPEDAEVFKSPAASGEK

SMILES | Intracellular Ca^2+ concentration (Fura Red ratio 405 nm/488 nm), agonist response (human TRPV1 channel [1]) | Intracellular Ca^2+ concentration (Fura Red ratio 405 nm/488 nm) in untransfected cells [2] | Cap-induced TRPV1 currents (human TRPV1 channel [3]) | TRPV1 currents in untransfected cells [4] | TRPV1 activation (TRPV1 channel; capsaicin ref [12], anandamide and 2-AG ref [13],[14],[15],[16]) | Efficacy and bioavailability in vivo [5] | Water solubility [5] | Side effects ([5]; oral administration, ref [98]) | TRPV1 binding mode of antagonists (TRPV1 channel; requiring four molecules to induce channel closure, ref [88],[89]) | Thermal hyperalgesia (thermal hyperalgesia)
COc1cc(CNC(=O)CCCC/C=C/C(C)C)ccc1O [capsaicin] | produced an increase in intracellular Ca^2+ concentration | did not induce an increase in intracellular Ca^2+ concentration | showed Cap-induced currents | did not observe TRPV1 currents | activated | limited efficacy and bioavailability in vivo | poor water solubility | irritation, orofacial pain, and gastric ulcers |  | 
Oc1cc2c(cc1O)CN(C(=S)NCCc1ccc(Cl)cc1)CCC2 [capsazepine] |  |  |  |  |  |  |  |  | bind to the vanilloid pocket and compete with capsaicin | reduces thermal hyperalgesia

Source: paper PMC11430712, “The Endocannabinoid Peptide RVD-Hemopressin Is a TRPV1 Channel Blocker” (Biomolecules, 2024)
